In patent US20230365554A1, “SUBSTITUTED PYRROLO-PYRIDINONE DERIVATIVES AND THERAPEUTIC USES THEREOF” (The Broad Institute, Inc., priority 2020, published 2023):

Target: human CSNK1A1 (Homo sapiens (Human), UniProt P48729)
Assay: CSNK1A1 Assay 2 (ADP-Glo, 1 μM ATP)
Type: biochemical
Settings: median, Table 2, read-out: CSNK1A1 Assay 2 IC50 [mol/l] (median)
In short: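 GST-tagged full-length human CSNK1A1 from insect cells, preincubated 15 min with compound, then reacted 30 min at 22° C with 1 μM ATP and 30 μM biotinylated peptide substrate in pH 7.5 HEPES buffer. ADP measured by ADP-Glo luminescence; normalised to no-inhibitor (0%) and no-enzyme (100%) controls.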

human CSNK1A1, sequence (P48729 whole entry): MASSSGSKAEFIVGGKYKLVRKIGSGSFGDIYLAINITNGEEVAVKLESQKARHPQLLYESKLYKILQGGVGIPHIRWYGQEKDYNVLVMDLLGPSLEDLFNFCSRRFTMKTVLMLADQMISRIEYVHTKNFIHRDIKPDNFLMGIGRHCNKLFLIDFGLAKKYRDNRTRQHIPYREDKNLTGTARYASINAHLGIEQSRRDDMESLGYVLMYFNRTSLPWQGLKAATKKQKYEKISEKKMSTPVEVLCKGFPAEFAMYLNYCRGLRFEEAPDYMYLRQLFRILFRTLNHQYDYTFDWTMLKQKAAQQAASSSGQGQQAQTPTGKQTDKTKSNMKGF

Going from `O=C1N[C@@H]2CCC[C@@H]2c2[nH]c(-c3ccnc(NC(=O)C(CC(F)F)c4ccc(F)cc4)c3)c(Nc3ccccc3)c21` (single isomer, unassigned; (-)) [Example 24, (−)-(2R or S)—N-{4-[cis-3-anilino-4-oxo-1,4,5,5a,6,7,8,8a-octahydrocyclopenta[b]pyrrolo[2,3-d]pyridin-2-yl]pyridin-2-yl}-4,4-difluoro-2-(4-fluorophenyl)butanamide] to `CCC1CNC(=O)c2c1[nH]c(-c1ccnc(NC(=O)C(CC(F)F)c3ccc(F)cc3)c1)c2Nc1ccccc1` (stereo not shown) [Example 4, N-{4-[3-anilino-7-ethyl-4-oxo-4,5,6,7-tetrahydro-1H-pyrrolo[3,2-c]pyridin-2-yl]pyridin-2-yl}-4,4-difluoro-2-(4-fluorophenyl)butanamide], the IC50 falls from 30 nM to 16 nM (1.9-fold).

Compared with `CN1CC(CC(F)(F)F)c2[nH]c(-c3ccnc(NC(=O)C(CC(F)F)c4ccc(F)cc4)c3)c(Nc3ccccc3)c2C1=O` (stereo not shown) [Example 17, N-{4-[3-anilino-5-methyl-4-oxo-7-(2,2,2-trifluoroethyl)-4,5,6,7-tetrahydro-1H-pyrrolo[3,2-c]pyridin-2-yl]pyridin-2-yl}-4,4-difluoro-2-(4-fluorophenyl)butanamide], `Cn1cc(CC(F)(F)F)c2[nH]c(-c3ccnc(NC(=O)Cc4ccc(F)cc4)c3)c(Nc3ccccc3)c2c1=O` [Example 34, N-{4-[3-anilino-5-methyl-4-oxo-7-(2,2,2-trifluoroethyl)-4,5-dihydro-1H-pyrrolo[3,2-c]pyridin-2-yl]pyridin-2-yl}-2-(4-fluorophenyl)acetamide] is 4-fold lower in IC50: 17 nM for the first, 4.3 nM for the second. The second is the more potent here.

Compared with `Cn1cc(CC2CC2)c2[nH]c(-c3ccnc(NC(=O)Cc4ccc(F)cc4)c3)c(Nc3ccccc3)c2c1=O` [Example 32, N-{4-[3-anilino-7-(cyclopropylmethyl)-5-methyl-4-oxo-4,5-dihydro-1H-pyrrolo[3,2-c]pyridin-2-yl]pyridin-2-yl}-2-(4-fluorophenyl)acetamide], `Cn1cc(CC(F)F)c2[nH]c(-c3ccnc(NC(=O)Cc4ccc(F)cc4)c3)c(Nc3ccccc3)c2c1=O` [Example 45, N-{4-[3-anilino-7-(2,2-difluoroethyl)-5-methyl-4-oxo-4,5-dihydro-1H-pyrrolo[3,2-c]pyridin-2-yl]pyridin-2-yl}-2-(4-fluorophenyl)acetamide] is 4.7-fold lower in IC50: 27 nM for the first, 5.7 nM for the second. The second is the more potent here.

`Cc1ccccc1Nc1c(-c2ccnc(NC(=O)Cc3ccc(F)cc3)c2)[nH]c2c(CC(F)(F)F)cn(C)c(=O)c12` [Example 33, 2-(4-fluorophenyl)-N-{4-[5-methyl-3-(2-methylanilino)-4-oxo-7-(2,2,2-trifluoroethyl)-4,5-dihydro-1H-pyrrolo[3,2-c]pyridin-2-yl]pyridin-2-yl}acetamide] gave an IC50 of 8.6 nM.
